The test concerns E. Coli 324. Description: In vitro antibacterial activity by the two-fold agar-plate dilution method. The following applies: Escherichia coli, HI-agar, overnight culture 10^8 viable cells per ml., 37° C. for 20 hours, read-out: MIC (minimal inhibitory concentration). Format: cell-based. The procedure:
In vitro antibacterial activity was determined by the two-fold agar-plate dilution method as described below. One loopful of an overnight culture of each test strain in Trypticase-soy broth (10^8 viable cells per ml.) was streaked on heart infusion agar (HI-agar) containing graded concentrations of antibiotics, and the minimal inhibitory concentration (MIC) was expressed in terms of μg/ml. after incubation at 37° C. for 20 hours.

≈ marks a conversion by molar mass, not a printed value.

In the case of `Cn1nnnc1SCC1=C(C(=O)O)N2C(=O)C(NC(=O)C(=O)c3csc(N)n3)C2SC1` (centres unmarked) [(1)], the MIC amounted to 0.05 µg/mL (≈ 0.104 µM).
For `Nc1nc(C(=O)C(=O)NC2C(=O)N3C(C(=O)O)=C(CSc4nncs4)CSC23)cs1` (centres unmarked) [(2)], the MIC amounted to 0.05 µg/mL (≈ 0.103 µM).
To `Cc1nnc(SCC2=C(C(=O)O)N3C(=O)C(NC(=O)C(=O)c4csc(N)n4)C3SC2)s1` (centres unmarked) [(3)] belongs 0.05 µg/mL (≈ 0.1 µM).
Consider `Cc1nnc(SCC2=C(C(=O)O)N3C(=O)C(NC(=O)C(=O)c4csc(N)n4)C3SC2)o1` (centres unmarked) [(4)], for which the MIC came out at 0.05 µg/mL (≈ 0.104 µM).
As for `Cn1cnnc1SCC1=C(C(=O)O)N2C(=O)C(NC(=O)C(=O)c3csc(N)n3)C2SC1` (centres unmarked) [(5)], the MIC was found to be 0.05 µg/mL (≈ 0.104 µM).

Source of the values: US4303655A, “3,7-Disubstituted-3-cephem-4-carboxylic acid compounds” (Fujisawa Pharmaceutical Co., Ltd., priority 1976, dated 1981).
